Values after ≈ are worked out from the molar mass of the structure shown.
Key:
[1] = tested on: TNF-α; test: LPS-induced TNF-α production in hPBMCs (primary screening, ELISA); format: cell-based, human; settings: LPS-stimulated hPBMCs
Method: TNF-α production by lipopolysaccharides (LPS) in hPBMCs was measured according to the method described by Jansky, L. et al (Physiol. Res. 52: 593-598, (2003)). Blood was collected from healthy donors into Ethylene diamine tetra acetic acid Potassium salt (Potassium EDTA) vacutainer tubes (BD vacutainer). The PBMCs were isolated using gradient centrifugation in Histopaque-1077 solution (Sigma). Isolated PBMCs were suspended in Roswell Park Memorial Institute (RPMI) 1640 culture medium (Gibco BRL, Pasley, UK) containing 10% fetal bovine serum (FBS) (Hyclone, Utah, USA), 100 U/ml penicillin (Sigma Chemical Co. St Louis, Mo.) and 100 μg/ml streptomycin (Sigma Chemical Co. St Louis, Mo.). The cell concentration was adjusted to 1×10^6 cells/ml. The viability as determined by trypan blue dye exclusion was uniformly ≧98%. The cell suspension (100 μl) was added to the wells of a 96-well culture plate. Following cell plating, 79 μl of the culture medium and 1 μl of eight different concentrations of the test compounds (final concentration 0.03, 0.1, 0.3, 1, 3, 10, 30, 100 μg/ml) dissolved in dimethylsulfoxide, (DMSO) Sigma, Mo., USA) were added to the cells. The final concentration of DMSO was adjusted to 0.5%. The vehicle (0.5% DMSO) was used as control. Rolipram (100, 300 μM) was used as a standard. The plates were incubated for 30 min at 37° C. in an atmosphere of 5% carbon dioxide (CO2). Finally, 20 μl (10 μg/ml) per well of LPS, (Escherchia coli 0127:B8, Sigma Chemical Co., St. Louis, Mo.) was added, for a final concentration of 1 μg/ml. The plates were incubated at 37° C. for 5 h in an atmosphere of 5% carbon dioxide (CO2). To assess the cytotoxic effect of the plant extracts, the cellular viability test was performed using 3-(4,5-dimethylthiazol-2-yl)-5-(3-carboxymethoxyphenyl)-2-(4-sulfonyl)-2H-tetrazolium) (MTS) reagent after 5 h of incubation. Supernatants were harvested and assayed for TNF-α by ELISA as described by the manufacturer (OptiElA ELISA sets, BD Biosciences, Pharmingen). […] Percent cytotoxicity of the test compound compared to control is evaluated.

[2] = tested on: interleukin-1β (IL-1β); test: IL-1β released by LPS-stimulated hPBMCs (ELISA); format: cell-based, human
Method: (§1) TNF-α production by lipopolysaccharides (LPS) in hPBMCs was measured according to the method described by Jansky, L. et al (Physiol. Res. 52: 593-598, (2003)). Blood was collected from healthy donors into Ethylene diamine tetra acetic acid Potassium salt (Potassium EDTA) vacutainer tubes (BD vacutainer). The PBMCs were isolated using gradient centrifugation in Histopaque-1077 solution (Sigma). Isolated PBMCs were suspended in Roswell Park Memorial Institute (RPMI) 1640 culture medium (Gibco BRL, Pasley, UK) containing 10% fetal bovine serum (FBS) (Hyclone, Utah, USA), 100 U/ml penicillin (Sigma Chemical Co. St Louis, Mo.) and 100 μg/ml streptomycin (Sigma Chemical Co. St Louis, Mo.). The cell concentration was adjusted to 1×10^6 cells/ml. The viability as determined by trypan blue dye exclusion was uniformly ≧98%. The cell suspension (100 μl) was added to the wells of a 96-well culture plate. […] Percent cytotoxicity of the test compound compared to control is evaluated.
The effect of the plant extract on the proinflammatory cytokines: interleukin-1β (IL-1β), interleukin-6 (IL-6) and interleukin-8 (IL-8) was measured using the supernatants generated in the primary screening assay. […]

[3] = tested on: human peripheral blood mononuclear cells; test: Cellular viability test (MTS) in hPBMCs; format: cell-based
Method: as §1, with “plate. Following cell plating, 79 μl of the culture medium and 1 μl of eight different concentrations of the test compounds (final concentration 0.03, 0.1, 0.3, 1, 3, 10, 30, 100 μg/ml) dissolved in dimethylsulfoxide, (DMSO) Sigma, Mo., USA) were added to the cells. The final concentration of DMSO was adjusted to 0.5%. The vehicle (0.5% DMSO) was used as control. Rolipram (100, 300 μM) was used as a standard.” for “plate.”

SMILES | IC50, TNF-α inhibition [1] [µg/mL] | IC50 against IL-1 [2] [µg/mL] | inhibition at 100 µM ([1]; Homo sapiens, 100 μM, read-out: % Inhibition of TNF-α release) [%] | inhibition at 300 µM ([1]; Homo sapiens, 300 μM, read-out: % Inhibition of TNF-α release) [%] | % Toxicity 5 h ([3]; 100 μM) [%] | % Toxicity 5 h ([3]; 300 μM) [%]
CC1=CCCC2C1(C)CCC(C)C2(C)CCC1=CC(=O)OC1O (stereo not drawn) [Compound 1, 16-hydroxycleroda-3,13(14)-dien-15,16-olide] | 5.9 (≈ 18.5 µM) | 0.4 (≈ 1.26 µM) | – | – | – | –
COc1ccc(C2CNC(=O)C2)cc1OC1CCCC1 (stereo not drawn) [Rolipram] | – | – | 100 | 100 | 2 | 10

From patent US7862837B2, “Herbal composition” (Piramal Life Sciences Limited, priority 2006, dated 2011)
